The structures appear in SMILES notation. Values joined by “and” are separate entries in the source; they are usually repeats but may differ in a detail not shown here. Equal entries are not always repeated. Where two headings read alike, the source gives them in different places.

The test system of assay [1] is vascular endothelial growth factor (VEGF). Kind of assay: Brain VEGF gene expression in mice after intravenous injection. It is filed as in vivo, Swiss Webster mice. The settings on record: 20 mg/kg i.v., four hours, quantitative real time PCR normalized to 18s RNA. The protocol: The effect of compounds of the present invention on regulation of cytoprotective and neuroprotective gene expression in brain was evaluated. In one series of experiments, male Swiss Webster mice were administered by intravenous injection various compounds of the present invention. Animals treated by intravenous injection received a 6 ml/kg volume of either 5% Dextrose with an equimolar amount of Meglumine (vehicle control) or 20 mg/kg of a compound of the present invention in 5% dextrose with an equimolar amount of Meglumine Animals were euthanized four hours later and their brains placed in RNAlater (Ambion, Austin Tex.) for subsequent analysis. Tissues were homogenized in Trizol (Invitrogen, Carlsbad Calif.) using 5-mm steel beads in a Mixer Mill (Qiagen, Valencia Calif.). RNA was isolated from the Trizol solution and then further purified using RNeasy kit (Qiagen). cDNA was prepared from […] total RNA using Omniscript reverse transcriptase (Qiagen) and random hexamers. Quantitative real time PCR was performed in a 7900HT instrument (Applied Biosystems, Foster City Calif.) using TaqMan Assays-on-Demand (Applied Biosystems). Gene expression levels were normalized to that of 18s RNA.

The subject of assay [2] is erythropoietin. Kind of assay: Plasma EPO in mice after oral gavage. It is filed as in vivo, Swiss Webster mice. The conditions noted are these: mouse plasma, oral gavage 6-60 mg/kg, six hours. The protocol:
(§1) In another series of experiments, male Swiss Webster mice (29-34 g) were administered various compounds of the present invention via oral gavage using a ball-tipped gavage needle. Animals treated by oral gavage received a 4-10 ml/kg volume of either 0.5% carboxymethyl cellulose with or without 0.1% Polysorbate 80 (vehicle control) or various doses (6-60 mg/kg) of a compound of the present invention in 0.5% CMC, with or without 0.1% Polysorbate 80. Blood samples were collected and tissues were processed as described above. Six hours after injection, the animals were anesthetized and exsanguinated.
(§2) Plasma samples were collected in EDTA and heparin coated microtainer tubes. Plasma samples were assayed for erythropoietin and VEGF using commercially-available ELISA kits purchased from R & D Systems (Minneapolis Minn.).

Assay [3] deals with erythropoietin. Put plainly: Plasma EPO in mice after intravenous injection. The class given is in vivo, Swiss Webster mice. The conditions noted are these: mouse plasma, 20 mg/kg i.v., four hours after injection; for fold induction at 20 mg/kg: iv, 4 h, read-out: EPO Fold Increase. Summed up:
(§3)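 Male Swiss Webster mice (29-34 g) received 20 mg/kg compound or vehicle by tail-vein injection in 5% dextrose with equimolar NaOH or meglumine. Plasma was collected 4 h later, and EPO and VEGF were measured by ELISA.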

The subject of assay [4] is VEGF. Kind of assay: Plasma VEGF in mice after oral gavage. It is filed as in vivo, Swiss Webster mice. The settings on record: mouse plasma, oral gavage 6-60 mg/kg, six hours. The protocol:
as §1, §2

Assay [5] deals with vascular endothelial growth factor (VEGF). Put plainly: VEGF expression in Kelly neuroblastoma cells. It is filed as cell-based. The settings on record: for VEGF: conditioned media after overnight incubation. The essentials:
(§4)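 Kelly neuroblastoma cells treated overnight with compound, 1% DMSO as negative control. EPO and VEGF secreted into conditioned media measured by QUANTIKINE immunoassay.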

Assay [6] deals with erythropoietin (EPO). Kind of assay: EPO expression in Kelly neuroblastoma cells. The settings on record: for EPO: conditioned media after overnight incubation. It is filed as cell-based. The essentials:
as §4

The test system of assay [7] is C57BL/6 mice, permanent occlusion of the MCA. Put plainly: Permanent middle cerebral artery occlusion (pMCAO) in C57BL/6 mice: infarct volume and edema. It is filed as in vivo. The conditions noted are these: C57BL/6 mice pMCAO, 20-60 mg/kg i.v.; for inhibition in vivo at up to 20 mg/kg: Mus musculus, iv, 24 h, 24 hours after MCA occlusion, read-out: Percent Reduction in Infarct Volume. Summed up: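 Male mice (25-35 g) under avertin anaesthesia had the distal MCA coagulated through a craniotomy; compound given as single i.v. bolus (20-60 mg/kg, 6 ml/kg in 5% dextrose with equimolar meglumine or NaOH) before or up to 8 h after occlusion.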

For assay [8], the system named is erythropoietin (EPO). Put plainly: EPO expression in Hep3B cells (QUANTIKINE immunoassay of conditioned media). The class given is cell-based, Human. The conditions noted are these: for Fold Increase Over Control: EPO, vs 1% DMSO control; for EPO: conditioned media after overnight incubation with compound. The essentials:
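Confluent Hep3B cells were switched to OPTI-MEM for about 24 h (20% O2, 5% CO2, 37 °C), then treated overnight with compound or 1% DMSO vehicle. EPO secreted into the conditioned medium was measured by QUANTIKINE immunoassay.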

Assay [9] concerns VEGF. Put plainly: Plasma VEGF in mice after intravenous injection. The class given is in vivo, Swiss Webster mice. The settings on record: mouse plasma, 20 mg/kg i.v., four hours after injection; for fold induction at 20 mg/kg: iv, 4 h, read-out: VEGF Fold Increase. The essentials:
as §3

The mark [10] stands for this setting: compound given 4 hr after occlusion.

Turning to `Cc1nc(C(=O)NCC(=O)O)c(O)c2cc(Oc3ccccc3)ccc12` [Compound AA, [(4-Hydroxy-1-methyl-6-phenoxy-isoquinoline-3-carbonyl)-amino]-acetic acid], the “VEGF gene expression in brain” value in assay [1] was 2.1.
For `O=C(O)CNC(=O)c1ncc2cc(Sc3ccccc3)ccc2c1O` [Compound E, [(4-Hydroxy-7-phenylsulfanyl-isoquinoline-3-carbonyl)-amino]-acetic acid], the EPO stood at 17.4 mIU/ml in assay [2] (human EPO ELISA kit (*)), 122 mIU/ml in assay [3] (human EPO ELISA kit (*)), 55.8 mIU/ml in assay [6] and 127.6 mIU/ml in [8]. In addition, the VEGF was 65.4 pg/mL in assay [4], 2495.8 pg/mL in assay [5] and 66.5 pg/mL in [9]. Further, the “VEGF Fold Increase” value is listed as 1.63 in assay [4] and 15.8 in [5]. For the same compound, the “EPO Fold Increase” value in [6] is reported as 9.0. In addition, in [7] (compound given −6 hr), the “Percent Reduction in Edema” value is given as 54%. For the same compound, the inhibition in vivo at up to 20 mg/kg came out at 9% in assay [7] (setting [10]) and 51% in assay [7] (compound given −6 hr). Moreover, the “Fold Increase Over Control” value in assay [8] came out at 17.0. The fold induction at 20 mg/kg in assay [9] is 1.58.
As for `O=C(O)CNC(=O)c1ncc2ccc(Sc3ccccn3)cc2c1O` [Compound AB, {[4-Hydroxy-6-(pyridin-2-ylsulfanyl)-isoquinoline-3-carbonyl]-amino}-acetic acid], the “VEGF gene expression in brain” value in [1] is listed as 2.1.
Turning to `O=C(O)CNC(=O)c1nc(Oc2ccccc2F)c2ccccc2c1O` [Compound Z, {[1-(2-Fluoro-phenoxy)-4-hydroxy-isoquinoline-3-carbonyl]-amino}-acetic acid], in assay [1] (20 mg/kg), the “VEGF gene expression in brain” value was 2.2 and 2.1.
As for `O=C(O)CNC(=O)c1nc(Cl)c2ccsc2c1O` [Compound L, [(4-Chloro-7-hydroxy-thieno[3,2-c]pyridine-6-carbonyl)-amino]-acetic acid], the figures for the “EPO Fold Increase” value in [2] and in [6] were 11.81 and 5.2, respectively. Moreover, the EPO in assay [2] (mouse EPO ELISA kit (**)) turned out to be 82.7 pg/mL; in assay [3] (mouse EPO ELISA kit (**)) it was 400.3 pg/mL; in assay [6], 98.2 mIU/ml; in assay [8], 11.1 mIU/ml. Further, the figures for the fold induction at 20 mg/kg in assay [3] and in [9] were 14.6 and 0.43, respectively. Besides, the VEGF in [4] amounted to 41 pg/mL; in assay [5], 4750.0 pg/mL; in assay [9] it was 13 pg/mL. The entries for the “VEGF Fold Increase” value in [4] and in assay [5] were 1.32 and 3.3, respectively. Also, the inhibition in vivo at up to 20 mg/kg in assay [7] (setting [10]) was 48%. Moreover, the “Fold Increase Over Control” value in [8] is 4.2.
As to `O=C(O)CNC(=O)c1ncc2cc(Oc3ccc(F)cc3)ccc2c1O` [Compound G, {[7-(4-Fluoro-phenoxy)-4-hydroxy-isoquinoline-3-carbonyl]-amino}-acetic acid], the results for the “EPO Fold Increase” value in [2] and in assay [6] were 123.57 and 5.5, respectively. In addition, the EPO in assay [2] (human EPO ELISA kit (*)) is recorded as 173 mIU/ml; in [3] (human EPO ELISA kit (*)) it was 162 mIU/ml; in [6], 34.4 mIU/ml; in [8], 73.4 mIU/ml. In addition, the values for the fold induction at 20 mg/kg in assay [3] and in assay [9] were 270 and 2.46, respectively. In addition, the values for the VEGF in assay [4], in assay [5] and in assay [9] were 110.8 pg/mL, 2271.5 pg/mL and 86.5 pg/mL, respectively. The “VEGF Fold Increase” value in assay [4] turned out to be 2.58; in [5], 14.4. In addition, in assay [7] (setting [10]), the inhibition in vivo at up to 20 mg/kg turned out to be 48%. Further, in [8], the “Fold Increase Over Control” value came to 5.1.

(Values after patent US9775902B2, “Compounds and methods for treatment of stroke” (FIBROGEN, INC, priority 2006, dated 2017).)
